Tests used:
[1] = Binding affinity to 5'-CGGCGGCC-3' DNA hairpin assessed as change in fluorescence intensity at 1 uM after 45 mins by fluorescence quenching analysis relative to control
[2] = Binding affinity to 5'-GGGGGGGG-3' DNA hairpin assessed as change in fluorescence intensity at 1 uM after 45 mins by fluorescence quenching analysis relative to control
[3] = Binding affinity to 5'-GGCGGGCG-3' DNA hairpin assessed as change in fluorescence intensity at 1 uM after 45 mins by fluorescence quenching analysis relative to control
[4] = Binding affinity to 5'-GGCGGCCC-3' DNA hairpin assessed as change in fluorescence intensity at 1 uM after 45 mins by fluorescence quenching analysis relative to control
[5] = Binding affinity to 5'-GCGGCGGC-3' DNA hairpin assessed as change in fluorescence intensity at 1 uM after 45 mins by fluorescence quenching analysis relative to control
[6] = Binding affinity to 5'-GGCGGGGC-3' DNA hairpin assessed as change in fluorescence intensity at 1 uM after 45 mins by fluorescence quenching analysis relative to control
[7] = Binding affinity to 5'-CGCCCGCG-3' DNA hairpin assessed as change in fluorescence intensity at 1 uM after 45 mins by fluorescence quenching analysis relative to control
[8] = Binding affinity to 5'-GCCGCCCG-3' DNA hairpin assessed as change in fluorescence intensity at 1 uM after 45 mins by fluorescence quenching analysis relative to control
[9] = Binding affinity to 5'-CGCGCGGG-3' DNA hairpin assessed as change in fluorescence intensity at 1 uM after 45 mins by fluorescence quenching analysis relative to control
[10] = Binding affinity to 5'-CGGGGCGG-3' DNA hairpin assessed as change in fluorescence intensity at 1 uM after 45 mins by fluorescence quenching analysis relative to control
[11] = Binding affinity to 5'-GCGCCGCG-3' DNA hairpin assessed as change in fluorescence intensity at 1 uM after 45 mins by fluorescence quenching analysis relative to control
[12] = Binding affinity to 5'-CGGCGGGC-3' DNA hairpin assessed as change in fluorescence intensity at 1 uM after 45 mins by fluorescence quenching analysis relative to control
[13] = Binding affinity to 5'-CGGCCGGC-3' DNA hairpin assessed as change in fluorescence intensity at 1 uM after 45 mins by fluorescence quenching analysis relative to control
[14] = Binding affinity to 5'-GGCGGGCC-3' DNA hairpin assessed as change in fluorescence intensity at 1 uM after 45 mins by fluorescence quenching analysis relative to control
[15] = Binding affinity to 5'-GGGCGCCC-3' DNA hairpin assessed as change in fluorescence intensity at 1 uM after 45 mins by fluorescence quenching analysis relative to control
[16] = Binding affinity to 5'-GCCGCCGC-3' DNA hairpin assessed as change in fluorescence intensity at 1 uM after 45 mins by fluorescence quenching analysis relative to control
[17] = Binding affinity to 5'-CCGGCGGG-3' DNA hairpin assessed as change in fluorescence intensity at 1 uM after 45 mins by fluorescence quenching analysis relative to control
[18] = Binding affinity to 5'-CGCGCCGC-3' DNA hairpin assessed as change in fluorescence intensity at 1 uM after 45 mins by fluorescence quenching analysis relative to control
[19] = Binding affinity to 5'-CCCGGGGC-3' DNA hairpin assessed as change in fluorescence intensity at 1 uM after 45 mins by fluorescence quenching analysis relative to control
[20] = Binding affinity to 5'-CCCCCCGC-3' DNA hairpin assessed as change in fluorescence intensity at 1 uM after 45 mins by fluorescence quenching analysis relative to control
[21] = Binding affinity to 5'-CGGCCCCG-3' DNA hairpin assessed as change in fluorescence intensity at 1 uM after 45 mins by fluorescence quenching analysis relative to control
[22] = Binding affinity to 5'-GGGCCGGG-3' DNA hairpin assessed as change in fluorescence intensity at 1 uM after 45 mins by fluorescence quenching analysis relative to control
[23] = Binding affinity to 5'-CGCGGGGC-3' DNA hairpin assessed as change in fluorescence intensity at 1 uM after 45 mins by fluorescence quenching analysis relative to control
[24] = Binding affinity to 5'-CGCGGGCC-3' DNA hairpin assessed as change in fluorescence intensity at 1 uM after 45 mins by fluorescence quenching analysis relative to control
[25] = Binding affinity to 5'-GCGGGCCG-3' DNA hairpin assessed as change in fluorescence intensity at 1 uM after 45 mins by fluorescence quenching analysis relative to control
[26] = Binding affinity to 5'-CGGGGGGC-3' DNA hairpin assessed as change in fluorescence intensity at 1 uM after 45 mins by fluorescence quenching analysis relative to control
[27] = Binding affinity to 5'-GGGCGCGC-3' DNA hairpin assessed as change in fluorescence intensity at 1 uM after 45 mins by fluorescence quenching analysis relative to control
[28] = Binding affinity to 5'-CGCCGGCC-3' DNA hairpin assessed as change in fluorescence intensity at 1 uM after 45 mins by fluorescence quenching analysis relative to control
[29] = Binding affinity to 5'-GGGGCCCC-3' DNA hairpin assessed as change in fluorescence intensity at 1 uM after 45 mins by fluorescence quenching analysis relative to control
[30] = Binding affinity to 5'-GGCCCCGC-3' DNA hairpin assessed as change in fluorescence intensity at 1 uM after 45 mins by fluorescence quenching analysis relative to control
[31] = Binding affinity to 5'-CGGGCGCC-3' DNA hairpin assessed as change in fluorescence intensity at 1 uM after 45 mins by fluorescence quenching analysis relative to control
[32] = Binding affinity to 5'-CCGCCGCG-3' DNA hairpin assessed as change in fluorescence intensity at 1 uM after 45 mins by fluorescence quenching analysis relative to control
[33] = Binding affinity to 5'-CCGCGGGG-3' DNA hairpin assessed as change in fluorescence intensity at 1 uM after 45 mins by fluorescence quenching analysis relative to control
[34] = Binding affinity to 5'-GGCGCCCG-3' DNA hairpin assessed as change in fluorescence intensity at 1 uM after 45 mins by fluorescence quenching analysis relative to control
[35] = Binding affinity to 5'-CGCGGCCG-3' DNA hairpin assessed as change in fluorescence intensity at 1 uM after 45 mins by fluorescence quenching analysis relative to control
[36] = Binding affinity to 5'-CCGGGGGC-3' DNA hairpin assessed as change in fluorescence intensity at 1 uM after 45 mins by fluorescence quenching analysis relative to control

NCC1O[C@H](O[C@H]2[C@@H](O)[C@H](O[C@@H]3[C@@H](O)[C@H](N)C[C@H](N)[C@H]3O[C@H]3O[C@H](CN)[C@@H](O)[C@H](O)[C@H]3N)O[C@@H]2CSCCNC(=O)CCSCC(=O)Nc2ccc(-c3c4ccc(=O)cc-4oc4cc(O)ccc34)c(C(=O)O)c2)[C@H](N)[C@@H](O)[C@@H]1O (stereo partly specified)
Activity [1]: 43.8%
Activity [2]: 27.2%
Activity [3]: 48.3%
Activity [4]: 41.2%
Activity [5]: 47.7%
Activity [6]: 43.2%
Activity [7]: 45.7%
Activity [8]: 45.8%
Activity [9]: 49.9%
Activity [10]: 45.5%
Activity [11]: 46.9%
Activity [12]: 43.1%
Activity [13]: 44.9%
Activity [14]: 53.2%
Activity [15]: 65.9%
Activity [16]: 47.9%
Activity [17]: 49.1%
Activity [18]: 50.9%
Activity [19]: 33.4%
Activity [20]: 30.2%
Activity [21]: 33.2%
Activity [22]: 37.5%
Activity [23]: 48.3%
Activity [24]: 44.3%
Activity [25]: 40.9%
Activity [26]: 32.2%
Activity [27]: 58.3%
Activity [28]: 48.6%
Activity [29]: 15%
Activity [30]: 21.3%
Activity [31]: 52.5%
Activity [32]: 44%
Activity [33]: 48.6%
Activity [34]: 43.7%
Activity [35]: 42%
Activity [36]: 38.4%
